The test has as its target T1, GlyT1 (Homo sapiens, UniProt P48067).
T1 construct: Human placental choriocarcinoma cells endogenously expressing GlyT1; host or cells: JAR cells (human placental choriocarcinoma)
T1 sequence (P48067 1-706): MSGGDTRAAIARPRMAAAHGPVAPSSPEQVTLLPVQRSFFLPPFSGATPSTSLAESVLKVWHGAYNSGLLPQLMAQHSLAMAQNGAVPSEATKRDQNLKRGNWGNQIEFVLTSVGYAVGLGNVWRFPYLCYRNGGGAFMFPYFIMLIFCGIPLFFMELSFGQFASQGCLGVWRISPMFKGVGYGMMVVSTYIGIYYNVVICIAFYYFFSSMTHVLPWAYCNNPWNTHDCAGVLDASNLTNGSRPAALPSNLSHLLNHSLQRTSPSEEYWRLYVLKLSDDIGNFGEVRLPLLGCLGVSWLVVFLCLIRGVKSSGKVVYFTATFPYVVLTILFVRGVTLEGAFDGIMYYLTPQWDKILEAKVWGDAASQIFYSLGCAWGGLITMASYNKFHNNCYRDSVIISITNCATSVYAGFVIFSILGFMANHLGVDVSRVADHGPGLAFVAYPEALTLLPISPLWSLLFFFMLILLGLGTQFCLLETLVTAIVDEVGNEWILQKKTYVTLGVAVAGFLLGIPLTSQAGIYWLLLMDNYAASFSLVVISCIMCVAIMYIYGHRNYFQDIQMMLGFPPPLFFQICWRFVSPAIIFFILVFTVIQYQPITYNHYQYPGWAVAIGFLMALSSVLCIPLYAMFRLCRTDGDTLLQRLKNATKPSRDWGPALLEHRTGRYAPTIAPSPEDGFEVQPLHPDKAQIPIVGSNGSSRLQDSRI
In words: [14C]-glycine uptake in JAR cells (scintillation proximity, Cytostar T plates). The format is cell-based. The note with it: read-out: Potency. The protocol: Human placental choriocarcinoma cells endogenously expressing GlyT1 can be cultured using standard conditions. Cells can then be grown at 37° C. in a humidified atmosphere 40-48 hours before the assay. Culture medium can be removed from the culture plate, and cells can be incubated with an amount of TB1A buffer with or without the compounds of the present invention for a sufficient period of time. Then an amount of [^14C]-glycine diluted with TB1A can be added to each well. After incubation the microplates can be sealed and counted. Non-specific uptake of [^14C]-glycine can be determined in the presence of unlabeled glycine. To determine potencies, a range of concentrations of the compounds of the present invention can be added to the cells, followed by the fixed concentration of [^14C]-glycine. The concentration of the present compound that inhibited half of the specific uptake of [^14C]glycine (IC50 value) can be determined from the assay data by non-linear curve fitting.
The procedure used was analogous to that disclosed in Williams, J. B.; Mallorga P. J.; Lemaire W.; Williams D. L.; Na S.; Patel S.; Conn J. P.; Pettibone D. J.; Austin C.; Sur C.; “Development of a scintillation proximity assay for analysis of Na+/Cl−-dependent neurotransmitter transporter activity,” ANAL. BIOCHEM.
Cells were plated at a density of 1.3×10^4 cells/well and grown at 37° C. in a humidified atmosphere of 5% CO2 for 40-48 h. Culture medium was removed from the Cytostar T plate and JAR cells were incubated with 30 μl of TB1A buffer (120 mM NaCl, 2 mM KCl, 1 mM CaCl2, 1 mM MgCl2, 10 mM Hepes, 5 mM L-alanine, pH 7.5 adjusted with 1 M Tris base) with or without multiple concentrations of test compound (added at 2× final concentration) for 1 min. Then 30 μl of [^14C]-glycine (Perkin-Elmer) diluted in TB1A was added to each well to give a final concentration of 10 μM. Cytostar T plates were then incubated in the dark at room temperature for 3 h, sealed with opaque white bottom plate seals (Perkin-Elmer) and clear top plate seals (Topseal A, Perkin-Elmer), and were counted on a Top Count (Packard). Glycine uptake was determined by measuring radioactivity in each well and plotted as a function of concentration of test compound. […] Nonspecific uptake of [^14C]-glycine was determined in the presence of 10 mM cold glycine. [^14C]-taurine (American Radiolabeled Chemicals, Inc.) uptake experiments were performed according to the same protocol except that 10 mM cold taurine was used to determine nonspecific uptake. […] COS-7 cells were transiently transfected with the human GlyT2 cDNA (Origene Technologies Inc., SC303452) using Fugene 6 (Roche) according to the manufacturer's instructions in Dulbecco's modified Eagle's medium (DMEM, Invitrogen) containing 10% Fetal Bovine Serum, 10 mM HEPES, 1 mM sodium pyruvate, penicillin (100 μg/ml), and streptomycin (100 μg/ml). The following day, the cells were plated at a density of 5×10^5 cells/well in Cytostar T plates and maintained at 37° C. in a humidified atmosphere of 5% CO2 for 24 h. GlyT2 glycine uptake experiments were performed according to the same protocol previously described.

Take `Cn1cnc(S(=O)(=O)N2CC3C(C2)C3(CNC(=O)c2cccc(Cl)c2)CC2CC2)c1` (stereo not drawn) [Compound 6j]: the IC50 turned out to be 119 nM.

On to `CC(C)S(=O)(=O)N1CC2C(C1)C2(CNC(=O)c1ccc(Cl)cc1Cl)CC1CC1` (stereo not drawn) [Compound 8c], for which the IC50 was 3400 nM.

Regarding `O=C(NCC1(CC2CC2)C2CN(S(=O)(=O)CC3CC3)CC21)c1ccc(C(F)(F)F)cc1` (stereo not drawn) [Compound 9h], the IC50 was found to be 629 nM.

For the molecule `Cn1cnc(S(=O)(=O)N2CC3C(C2)C3(CNC(=O)c2ccccc2C(F)(F)F)CC2CC2)c1` (stereo not drawn) [Compound 6f], the IC50 is 5 nM.

`Cn1cnc(S(=O)(=O)N2CC3C(C2)C3(CNC(=O)c2cccc(C(F)(F)F)c2)CC2CC2)c1` (stereo not drawn) [Compound 6g]: the IC50 stood at 64 nM.

`CCCS(=O)(=O)N1CC2C(C1)C2(CNC(=O)c1ccc(Cl)cc1Cl)CC1CC1` (stereo not drawn) [Compound 8b]: the IC50 came to 361 nM.

Consider `CCCS(=O)(=O)N1CC2C(C1)C2(CNC(=O)c1ccc(Cl)cc1Cl)c1ccccn1` (stereo not drawn) [Compound 12c], for which the IC50 is above 20000 nM.

Regarding `Cn1cc(S(=O)(=O)N2CC3C(C2)C3(CNC(=O)c2ccc(Cl)cc2Cl)c2ccccn2)cn1` (stereo not drawn) [Compound 12e], the IC50 is above 20000 nM.

Take `O=C(NCC1(CC2CC2)C2CN(S(=O)(=O)CC3CC3)CC21)c1c(F)cccc1F` (stereo not drawn) [Compound 9j]: the IC50 was determined as 1020 nM.

`Cn1cnc(S(=O)(=O)N2CC3C(C2)C3(CNC(=O)c2ccccc2C(F)(F)F)c2ccccn2)c1` (stereo not drawn) [Compound 13b, 2-Trifluoromethyl-N-((6-(pyridin-2-yl)-3-(1-methyl-1H-imidazol-4-ylsulfonyl)-3-azabicyclo[3.1.0]hexan-6-yl)methyl)benzamide]: the IC50 came to 190 nM.

On to `Cn1cnc(S(=O)(=O)N2CC3C(C2)C3(CNC(=O)c2ccc(Cl)cc2)CC2CC2)c1` (stereo not drawn) [Compound 6c], for which the IC50 was 32 nM.

As for `CCCS(=O)(=O)N1CC2C(C1)C2(CNC(=O)c1cccc(C(F)(F)F)c1)CC1CC1` (stereo not drawn) [Compound 9d], the IC50 turned out to be 4500 nM.

As to `Cn1cnc(S(=O)(=O)N2CC3C(C2)C3(CNC(=O)c2ccc(Cl)cc2Cl)CC2CC2)c1` (stereo not drawn) [Compound 6a, 2,4-dichloro-N-((6-(cyclopropylmethyl)-3-(1-methyl-1H-imidazol-4-ylsulfonyl)-3-azabicyclo[3.1.0]hexan-6-yl)methyl)benzamide], the IC50 turned out to be 4.1 nM.

On to `Cn1cnc(S(=O)(=O)N2CC3C(C2)C3(CNC(=O)c2c(F)cccc2F)CC2CC2)c1` (stereo not drawn) [Compound 6e], for which the IC50 was determined as 4 nM.

As for `Cn1cnc(S(=O)(=O)N2CC3C(C2)C3(CNC(=O)c2ccc(Cl)cc2Cl)c2ccccn2)c1` (stereo not drawn) [Compound 12d, 2,4-dichloro-N-((3-(1-methyl-1H-imidazol-4-ylsulfonyl)-6-(pyridine-2-yl)-3-azabicyclo[3.1.0]hexan-6-yl)methyl)benzamide], the IC50 was 240 nM.

Regarding `Cn1cnc(S(=O)(=O)N2CC3C(C2)C3(CNC(=O)c2ccccc2Cl)CC2CC2)c1` (stereo not drawn) [Compound 6b], the IC50 was determined as 18.6 nM.

Turning to `Cn1cnc(S(=O)(=O)N2CC3C(C2)C3(CNC(=O)c2ccc(Cl)c(Cl)c2)CC2CC2)c1` (stereo not drawn) [Compound 6d], the IC50 was 82 nM.

Regarding `CCCS(=O)(=O)N1CC2C(C1)C2(CNC(=O)c1ccc(C(F)(F)F)cc1)CC1CC1` (stereo not drawn) [Compound 9e], the IC50 stood at 1100 nM.

In the case of `CCCS(=O)(=O)N1CC2C(C1)C2(CNC(=O)c1ccc(F)cc1Cl)CC1CC1` (stereo not drawn) [Compound 9f], the IC50 was 507 nM.

With `O=C(NCC1(CC2CC2)C2CN(S(=O)(=O)CC3CC3)CC21)c1ccc(F)cc1F` (stereo not drawn) [Compound 9i], the IC50 was 1020 nM.

Consider `Cn1cnc(S(=O)(=O)N2CC3C(C2)C3(CNC(=O)c2ccc(F)cc2F)CC2CC2)c1` (stereo not drawn) [Compound 6h], for which the IC50 came out at 44 nM.

As for `CCCS(=O)(=O)N1CC2C(C1)C2(CNC(=O)c1ccccc1F)CC1CC1` (stereo not drawn) [Compound 9a], the IC50 is 2100 nM.

Consider `CCS(=O)(=O)N1CC2C(C1)C2(CNC(=O)c1ccc(Cl)cc1Cl)c1ccccn1` (stereo not drawn) [Compound 12b], for which the IC50 is above 20000 nM.

Regarding `CCCS(=O)(=O)N1CC2C(C1)C2(CNC(=O)c1ccc(Cl)cc1)CC1CC1` (stereo not drawn) [Compound 9c], the IC50 was found to be 1850 nM.

For the molecule `O=C(NCC1(c2ccccn2)C2CN(S(=O)(=O)c3ccccc3)CC21)c1ccc(Cl)cc1Cl` (stereo not drawn) [Compound 12f], the IC50 was above 20000 nM.

As to `CS(=O)(=O)N1CC2C(C1)C2(CNC(=O)c1ccc(Cl)cc1Cl)c1ccccn1` (stereo not drawn) [Compound 12a], the IC50 was above 20000 nM.

For the molecule `CCS(=O)(=O)N1CC2C(C1)C2(CNC(=O)c1ccc(Cl)cc1Cl)CC1CC1` (stereo not drawn) [Compound 8a], the IC50 came to 1300 nM.

For the molecule `O=C(NCC1(c2ccccn2)C2CN(S(=O)(=O)c3ccccn3)CC21)c1ccc(Cl)cc1Cl` (stereo not drawn) [Compound 12g], the IC50 is above 20000 nM.

Take `CCCS(=O)(=O)N1CC2C(C1)C2(CNC(=O)c1ccccc1Cl)CC1CC1` (stereo not drawn) [Compound 9b]: the IC50 came to 1200 nM.

For `Cn1cnc(S(=O)(=O)N2CC3C(C2)C3(CNC(=O)c2cc(Cl)cc(Cl)c2)CC2CC2)c1` (stereo not drawn) [Compound 6i], the IC50 came out at 100 nM.

Regarding `O=C(NCC1(CC2CC2)C2CN(S(=O)(=O)CC3CC3)CC21)c1ccccc1C(F)(F)F` (stereo not drawn) [Compound 9g], the IC50 was 688 nM.

`Cn1cnc(S(=O)(=O)N2CC3C(C2)C3(CNC(=O)c2ccccc2Cl)c2ccccn2)c1` (stereo not drawn) [Compound 13a]: the IC50 amounted to 457 nM.

With `O=C(NCC1(CC2CC2)C2CN(S(=O)(=O)CC3CC3)CC21)c1ccc(Cl)cc1Cl` (stereo not drawn) [Compound 8d, 2,4-Dichloro-N-((6-(cyclopropylmethyl)-3-(cyclopropylmethylsulfonyl)-3-azabicyclo[3.1.0]hexan-6-yl)methyl)benzamide], the IC50 came to 231 nM.
